Values of other authors, collected in publication PMC8178945 (Computational and Structural Biotechnology Journal, 2021).

Biological target: 3CL^Pro
Conditions: read-out: KD from isothermal titration calorimetry; previously obtained

## O=c1cc(-c2ccccc2)oc2cc(O)c(O)c(O)c12 [baicalein]
  Kd: 4.03 µM
